Laboratory results: article PMC3760249 (mBio, 2013)

What was measured:
AppA [1] = molecular target: T1, AppA (Cereibacter sphaeroides, UniProt Q53119); assay: co-purification, flavin absorption spectrum; format: binding; settings: BLUF domain cofactor as purified
T1 sequence (Q53119 1-450): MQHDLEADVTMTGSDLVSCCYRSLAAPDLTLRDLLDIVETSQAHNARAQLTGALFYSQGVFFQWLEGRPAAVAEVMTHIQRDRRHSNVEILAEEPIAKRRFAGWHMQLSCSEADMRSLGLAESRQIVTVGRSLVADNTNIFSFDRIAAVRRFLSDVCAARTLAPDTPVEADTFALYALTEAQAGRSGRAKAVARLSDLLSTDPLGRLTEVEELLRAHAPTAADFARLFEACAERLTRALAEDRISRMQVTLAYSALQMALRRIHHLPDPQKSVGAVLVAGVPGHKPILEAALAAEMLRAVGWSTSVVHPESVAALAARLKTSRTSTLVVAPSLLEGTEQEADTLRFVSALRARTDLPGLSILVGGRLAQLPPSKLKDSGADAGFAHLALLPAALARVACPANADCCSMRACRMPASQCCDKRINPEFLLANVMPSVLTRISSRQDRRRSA

AppA [2] = molecular target: T1, AppA; assay: biochemical

Row | Compound | co-purification, flavin absorption spectrum (AppA [1]) | Kd (AppA [2])
1 | Cc1cc2nc3c(=O)[nH]c(=O)nc-3n(C[C@H](O)[C@H](O)[C@H](O)COP(=O)(O)OP(=O)(O)OC[C@H]3O[C@@H](n4cnc5c(N)ncnc54)[C@H](O)[C@@H]3O)c2cc1C [flavin adenine dinucleotide] | it does contain flavin adenine dinucleotide (FAD) as the BLUF domain cofactor | 
2 | C=CC1=C(C)C2=Cc3c(C=C)c(C)c4[n]3[Fe+][n]3c(c(C)c(CCC(=O)O)c3=CC3=NC(=C4)C(C)=C3CCC(=O)O)=CC1=N2 [heme] |  | 1250 ± 440 nM
